Patent US20260182575A1, “MOLECULES HAVING PESTICIDAL UTILITY AND INTERMEDIATES AND PROCESSES RELATED THERETO” (CORTEVA AGRISCIENCE LLC, priority 2022, published 2026)

Tests used:
Format in all cases: in vivo
[1] = tested on: Green Peach Aphid (Myzus persicae, MYZUPE, GPA); test: Bioassay 1: green peach aphid, cabbage seedling foliar spray; settings: AI alone at the rate of Wt Ratio F1:AI 1:40000 (F1 0.04), 3 days
Experimental: Bioassay 1: Green Peach Aphid (Myzus persicae, MYZUPE, “GPA”).
Stock solutions of F1 and various active ingredients were prepared initially at a concentration of 4 milligrams per milliliter (mg/mL) for F1 and 0.1 mg/mL for the active ingredients, respectively, using a 1:1 mixture of acetone:methanol as a diluent. Stock solutions were prepared with F1 as well as for each of the active ingredients individually. Test solutions were prepared from the stock solutions. Test solutions were prepared containing F1, the individual active ingredients, and mixtures of F1 with each of the active ingredients. The test solutions for F1 and the individual active ingredients were prepared by adding 750 microliters (μL) of stock solution to a 25 mL glass vial, then adding 750 μL of 1:1 acetone:methanol solvent, followed by the addition of 13.5 mL water with 0.025% Tween® 20 to create a 0.0005% (weight/volume (w/v)) solution. The test solutions containing mixtures of F1, and the individual active ingredients were prepared by adding 750 μL of the active ingredient stock solution to a 25 mL glass vial, followed by 750 μL of the F1 stock solution, then by the addition of 13.5 mL water with 0.025% Tween® 20 to create a test solution containing 0.0005% (w/v) F1 and 0.0005% (w/v) of the active ingredient. Each test solution was serially diluted to create desired doses of test solutions (0.0005% (w/v), 0.000125% (w/v), 0.00003125% (w/v), 0.0000078% (w/v), 0.00000195% (w/v), and 0.0000005% (w/v)). In test solutions containing mixtures of F1 and the active ingredients, the active ingredients were diluted as described above, but the concentration of F1 was held constant (0.04% (w/v)).
The test solutions were tested against GPA using the following procedure: cabbage seedlings, grown in 3-inch pots with 2-3 small (3-5 centimeter (cm)) true leaves, were used as test substrate. The seedlings were infested with 20-50 GPA (wingless adult and nymph stages) one day prior to chemical application. Four pots with individual seedlings were used for each treatment. A hand-held aspirator-type sprayer was used for spraying a solution to both sides of […] leaves until runoff. Reference plants (solvent check) were sprayed with the diluent only (0.025% Tween® 20 and 10% acetone:methanol (1:1) in water). Treated plants were held in a holding room for three days at approximately 25° C. and ambient relative humidity (RH about 20% to about 45%) prior to grading. Evaluation was conducted by counting the number of live aphids per plant under a microscope three days after treatment. Percent control was measured using Abbott's correction formula (W. S. Abbott, J. Econ. Entomol. 18 (1925), pp. 265-267) as follows:
where X=No. of live aphids on solvent check plants and Y=No. of live aphids on treated plants. In Table B1 the “Expected % Control” was calculated using the method described in Colby S. R., Weeds, 1967, 15, 20-22. Bioassay 2: Sweet Potato Whitefly (Bemisia tabaci, BEMITA, “SPW”).

[2] = tested on: Sweet Potato Whitefly (Bemisia tabaci, BEMITA, SPW); test: Bioassay 2: sweet potato whitefly, cotton seedling foliar spray; settings: AI alone, Wt % AI 0.0001, 7-9 days
Experimental: Stock solutions were prepared with F1 as well as for each of the active ingredients individually. Test solutions were prepared from the stock solutions. Test solutions were prepared containing F1, the individual active ingredients, and mixtures of F1 with each of the active ingredients. The test solutions for F1 and the individual active ingredients were prepared by adding 500 μL of stock solution to a 25 mL glass vial, then adding 500 μL of acetone, followed by the addition of 9 mL water with 0.025% Tween® 20 to create a 0.001% (w/v) solution. The test solutions containing mixtures of F1, and the individual active ingredients were prepared by adding 500 μL of the active ingredient stock solution to a 25 mL glass vial, followed by 500 μL of the F1 stock solution, then by the addition of 9 mL water with 0.025% Tween® 20 to create a test solution containing 0.001% (w/v) F1 and 0.001% (w/v) of the active ingredient. Each test solution was serially diluted to create desired doses of test solutions (0.001% (w/v), 0.0001% (w/v), 0.00001% (w/v), 0.000001% (w/v), 0.0000001% (w/v), and 0.00000001% (w/v)).
The test solutions were tested against SPW using the following procedure: Cotton seedlings grown in 3-inch pots, pruned so that only one true leaf remained, were used as test substrate. Adult B. tabaci were allowed to colonize the cotton plants and lay eggs for 24 hours after which all adults were removed from the plants using compressed air. Plants were monitored for egg development, and when crawler emergence was underway (>25% emergence based on visual examination using a microscope), the plants were sprayed using the test solutions and methods described above for green peach aphids (GPA). Treated plants were held in a holding room at approximately 25° C. and ambient relative humidity (RH) prior to grading. Evaluation was conducted by counting the number of developed 2-3 instar nymphs per plant under a microscope 7-9 days after treatment. Percent control was measured using Abbott's correction formula (W. S. Abbott, J. Econ. Entomol. 18 (1925), pp. 265-267) as follows:
where X=No. of live nymphs on solvent check plants and Y=No. of live nymphs on treated plants. In Table B2 the “Expected % Control” was calculated using the method described in Colby S. R., Weeds, 1967, 15, 20-22. Bioassay 3: Western Flower Thrips (Frankliniella occidentalis, FRANOC, “WFT”).

[3] = tested on: Corn Earworm (Helicoverpa zea, HELIZE, CEW); test: Bioassay 4: corn earworm, artificial diet, 128-cell tray; settings: AI alone
Experimental: (§1) Stock solutions were prepared with F1 as well as for each of the active ingredients individually. Test solutions were prepared from the stock solutions. Test solutions were prepared containing F1, the individual active ingredients, and mixtures of F1 with each of the active ingredients. The test solution for F1 was prepared by adding 500 μL of the stock solution to a 25 mL glass vial, then adding 500 μL of a 9:1 mixture of acetone:water. The individual active ingredients were prepared by adding 500 μL of stock solution to a 25 mL glass vial, then adding 500 μL of a 9:1 mixture of acetone:water. The test solutions containing mixtures of F1, and the individual active ingredients were prepared by adding 500 μL of the active ingredient stock solution to a 25 mL glass vial, followed by 500 μL of the F1 stock solution, creating a test solution containing 0.04% (w/v) of F1 and 0.4% (w/v) of the active ingredient. Each test solution was serially diluted to create desired doses of test solutions (F1 at 0.04% (w/v), 0.004% (w/v), 0.0004% (w/v), 0.00004% (w/v), 0.000004% (w/v), and 0.0000004% (w/v) and active ingredients at 0.4% (w/v), 0.04% (w/v), 0.004% (w/v), 0.0004% (w/v), 0.00004% (w/v), and 0.000004% (w/v)).
(§2) The test solutions were tested against CEW, FAW, and SBL using the following procedure: an artificial lepidopteran diet (Multispecies Lepidopteran Diet, Southland Products) was distributed in 128-cell bioassay trays (Frontier Agricultural Sciences™). 50 μL of test solution was pipetted into a cell in the bioassay tray. (The test solution doses of 0.04% (w/v), 0.004% (w/v), 0.0004% (w/v), 0.00004% (w/v), 0.000004% (w/v), and 0.0000004% (w/v) translated to concentrations of 5, 0.5, 0.05, 0.005, 0.0005, and 0.00005 μg/cm^2 on the diet, respectively.) A reference treatment (solvent check) was treated with the diluent only. Each treatment was replicated 8 times for each species. A 2nd instar CEW, FAW, or SBL larva was placed on top of the diet in each cell and was contained with a clear perforated adhesive lid. Test trays were held at approximately 26° C. and ambient relative humidity (RH) prior to grading.
(§3) After 5 days, the number of live larvae were recorded from each cell and percent control was measured using Abbott's correction formula (W. S. Abbott, J. Econ. Entomol. 18 (1925), pp. 265-267) as follows:
(§4) where X=No. of live larvae on solvent check and Y=No. of live larvae on treated diet. In Table B4 the “Expected % Control” was calculated using the method described in Colby S. R., Weeds, 1967, 15, 20-22. Bioassay 5: Neotropical Brown Stink Bug (Euschistus heros, EUSCHE, “BSB”).

[4] = tested on: Fall Armyworm (Spodoptera frugiperda, LAPHFR, FAW); test: Bioassay 4: fall armyworm, artificial diet, 128-cell tray; settings: AI alone
Experimental: as §1, §2, §3, §4

[5] = tested on: Soybean Looper (Chrysodeixis includens, PSEPIN, SBL); test: Bioassay 4: soybean looper, artificial diet, 128-cell tray; settings: AI alone
Experimental: as §1, §2, §3, §4

[6] = tested on: Western Flower Thrips (Frankliniella occidentalis, FRANOC, WFT); test: Bioassay 3: western flower thrips, cotton leaf disc dip; settings: 3 days
Experimental: Stock solutions of F1 and various active ingredients were prepared initially at a concentration of 0.1 mg/mL using acetone as a diluent. Stock solutions were prepared with F1 as well as for each of the active ingredients individually. Test solutions were prepared from the stock solutions. Test solutions were prepared containing F1, the individual active ingredients, and mixtures of F1 with each of the active ingredients. The test solutions for F1 and the individual active ingredients were prepared by adding 500 μL of stock solution to a 25 mL glass vial, then adding 500 μL of acetone, followed by the addition of 9 mL water with 0.025% Tween® 20 to create a 0.0005% (w/v) solution. The test solutions containing mixtures of F1, and the individual active ingredients were prepared by adding 500 μL of the active ingredient stock solution to a 25 mL glass vial, followed by 500 μL of the F1 stock solution, then by the addition of 9 mL water with 0.025% Tween® 20 to create a test solution containing 0.0005% (w/v) F1 and 0.0005% (w/v) of the active ingredient. Each test solution was serially diluted to create desired doses of test solutions (0.0005% (w/v), 0.000125% (w/v), 0.00003125% (w/v), 0.0000078% (w/v), and 0.00000195% (w/v)).
The test solutions were tested against WFT using the following procedure: Leaf discs (2.7 cm in diameter) were cut from the true leaves of cotton plants. Leaf discs were dipped into the test solutions and shaken to ensure complete coverage of the leaf disc and then placed in Millipore® PetriSlides containing a filter paper disc. Treated leaf discs were air dried for approximately 1 hour. Each leaf disc was infested with 5 WFT (9-10-day old nymphs) by placement on each leaf disc, and the PetriSlides were capped to prevent escape. Each treatment was replicated three times and the test treatments were held at approximately 26° C. and ambient relative humidity (RH) prior to grading. Reference discs (solvent check) were treated with the diluent only. Evaluation was conducted by counting the number of live WFT under magnification 3 days after treatment. Percent control was measured using Abbott's correction formula (W. S. Abbott, J. Econ. Entomol. 18 (1925), pp. 265-267) as follows:
where X=No. of live nymphs on solvent check leaf discs and Y=No. of live nymphs on treated leaf discs. In Table B3 the “Expected % Control” was calculated using the method described in Colby S. R., Weeds, 1967, 15, 20-22. Bioassay 4: Corn Earworm (Helicoverpa zea, HELIZE, “CEW”), Fall Armyworm (Spodoptera frugiperda, LAPHFR, “FAW”), and Soybean Looper (Chrysodeixis includens, PSEPIN, “SBL”).

[7] = tested on: Western Corn Rootworm (Diabrotica virgifera virgifera, DIABVI, WCR); test: Bioassay 8: western corn rootworm, soil drench, corn root protection; settings: AI alone, UgActive AI 1; DIABVI, soil drench, 13 days
Experimental: Corn seeds were planted in steam pasteurized soil filled greenhouse pots. Western corn rootworm Diabrotica virgifera virgifera eggs supplied from the Corteva Agriscience in Johnston, IA US, were suspended in a 0.08% agar solution added into the soil. Stock solutions of F1 and active ingredients were prepared at a concentration of either 250 or 500 ugai/10 mL for F1 and active ingredients at the ratios of (F1:AI) 1:0.004; 1:0.01; 1:0.02; 1:0.04; 1:0.08; 1:0.1; 1:0.15; 1:0.2; 1:0.4; 1:2; or 1:4, using a 1:1 solution of acetone:water as a diluent. A soil application of solutions were applied as a 10 mL drench over the soil. Plants were grown in the greenhouse for 13 days at 25 C after which the roots were removed from the soil, washed, and measured to determine the length of the median nodal roots. The measured lengths were compared to the infested and un-infested untreated checks to determine the mean percent control offered to protect the corn roots.

| Structure (SMILES) | Average % Control AI [1] | Average % Control AI [2] | Average % Control AI ([3]; 0.000004 wt %) | Average % Control AI ([3]; 0.00004 wt %) | Average % Control AI ([4]; 0.000004 wt %) | Average % Control AI ([5]; 0.000004 wt %) | Average % Control AI ([6]; AI alone at 1:1 rate to F1 0.195 (10^-6 Wt %)) | Average % Control AI ([6]; AI alone at 1:1 rate to F1 3.125 (10^-6 Wt %)) | Average % Control AI ([4]; 0.00004 wt %) | Average % Control AI ([5]; 0.00004 wt %) | Average % Control AI [7] |
| --- | --- | --- | --- | --- | --- | --- | --- | --- | --- | --- | --- |
| CNC(=O)c1cc(Cl)cc(C)c1NC(=O)c1cc(Br)nn1-c1ncccc1Cl [Chlorantraniliprole] | 8.1% | 28.0% | 0.0% | 0.0% | 62.5% | 37.5% | – | – | – | – | – |
| N#Cc1nn(-c2c(Cl)cc(C(F)(F)F)cc2Cl)c(N)c1[S+]([O-])C(F)(F)F (centres unmarked) [Fipronil] | – | 8.9% | 0.0% | 0.0% | 0.0% | 0.0% | 9.5% | 42.9% | 0.0% | 0.0% | – |
| CN/C(=N\[N+](=O)[O-])NCc1cnc(Cl)s1 [Clothianidin] | – | – | – | – | – | – | – | – | – | – | 14.8% |
| CO/N=C(/C1=NOCCO1)c1ccccc1Oc1ncnc(Oc2ccccc2Cl)c1F [Fluoxastrobin] | – | – | – | – | – | – | – | – | – | – | 0.0% |
